# Structures can show the parent of a compound that is named as a salt.
# How the values were obtained:
# L6-myotubes [1] = assay: Glucose uptake (3H-2-deoxyglucose) in differentiated L6-myotubes; assay type: cell-based; details: compound at 10 µM (1×10^−5 M) vs isoproterenol at 10 µM, read-out: Biological example 1: glucose uptake, activity compared to that of isoproterenol
# Method: L6-myoblasts were grown in Dulbecco's Modified Eagle's Medium (DMEM) containing 1 g/L glucose supplemented with 10% fetal bovine serum, 2 mM L-Glutamine, 50 U/ml penicillin, 50 μg/mL streptomycin and 10 mM HEPES. Cells were plated at 1×10^5 cells per mL in 24-well plates. After reaching 90% confluence the cells were grown in medium containing 2% FBS for 7 days where upon cells differentiated into myotubes. Differentiated L6-myotubes were serum-starved overnight in medium containing 0.5% fatty-acid free BSA and stimulated with an agonist, with a final concentration of 1×10^−5 M. After 1 h 40 min the cells were washed with warm glucose free medium or PBS twice and another portion of agonist was added to the glucose free medium. After 20 min the cells were exposed to 50 nM ^3H-2-deoxyglucose for another 10 min before washed in ice cold glucose free medium or PBS three times and lysed in 400 μL/well 0.2 M NaOH for 1 h at 60° C. The cell lysate was mixed with 4 mL scintillation buffer (Emulsifier Safe, Perkin Elmer) and the radioactivity was detected in a β-counter (Tri-Carb 4810TR, Perkin Elmer). The activity for each compound is compared to that of isoproterenol.
# L6-myotubes [2] = assay: Measurement of intracellular cAMP levels in differentiated L6 cells; assay type: cell-based; details: Rattus norvegicus, L6, 0.25 h, compound at 10 µM (1×10^−5 M), 15 min, vs isoproterenol at 10 µM, read-out: Biological example 2: intracellular cAMP levels, activity compared to that of isoproterenol
# Method: L6-myoblasts were grown in Dulbecco's Modified Eagle's Medium (DMEM) containing 1 g/L glucose supplemented with 10% fetal bovine serum, 2 mM L-Glutamine, 50 U/ml penicillin, 50 μg/mL streptomycin and 10 mM HEPES. Cells were plated at 1×10^5 cells per mL in 24-well plates. After reaching 90% confluence the cells were grown in medium containing 2% FBS for 7 days where upon cells differentiated into myotubes. Differentiated cells were serum-starved overnight and stimulated with an agonist, final concentration 1×10^−5 M, for 15 min in stimulation buffer (HBSS supplemented with 1% BSA, 5 mM HEPES and 1 mM IBMX, pH 7.4). The medium was aspirated and 100 μL of 95% EtOH was added to each well of the 24-well plate and cells were kept at −20° C. overnight. The EtOH was allowed to evaporate and 500 μL of lysis buffer (1% BSA, 5 mM HEPES and 0.3% Tween-20, pH 7.4) was added to each well. The plate was kept at −80° C. for 30 min and then at −20° C. until the day of detection when the samples were thawed. Intracellular cAMP levels were detected using an alpha screen CAMP kit (6760635D from Perkin Elmer). The activity for each compound is compared to that of isoproterenol.
structure (smiles),measurement,setting,value
"O[C@H](c1cncc(F)c1)C12CCC(C/C=C/c3ccccc3)(CC1)N2 [Example 29, (R)-(4-Cinnamyl-7-azabicyclo[2.2.1]heptan-1-yl)(5-fluoropyridin-3-yl)-methanol]",Emax at 10 µM,L6-myotubes [1],> 75%
same,Emax at 10 µM,L6-myotubes [2],< 25%
"O[C@@H](c1cncc(F)c1)C12CCC(C/C=C/c3ccccc3)(CC1)N2 [Example 30, (S)-(4-Cinnamyl-7-azabicyclo[2.2.1]heptan-1-yl)(5-fluoropyridin-3-yl)-methanol]",Emax at 10 µM,L6-myotubes [1],25 to 50%
same,Emax at 10 µM,L6-myotubes [2],< 25%
"O[C@H](c1cccc(F)c1)C12CCC(C/C=C/c3ccccc3)(CC1)N2 [Example 31, (R)-(4-Cinnamyl-7-azabicyclo[2.2.1]heptan-1-yl)(3-fluorophenyl)methanol]",Emax at 10 µM,L6-myotubes [1],> 75%
same,Emax at 10 µM,L6-myotubes [2],< 25%
"O[C@@H](c1cccc(F)c1)C12CCC(C/C=C/c3ccccc3)(CC1)N2 [Example 32, (S)-(4-Cinnamyl-7-azabicyclo[2.2.1]heptan-1-yl)(3-fluorophenyl)methanol]",Emax at 10 µM,L6-myotubes [1],< 25%
same,Emax at 10 µM,L6-myotubes [2],< 25%
"O[C@H](c1cncc(F)c1)C12CCC(CCCc3ccccc3)(CC1)N2 [Example 33, (R)-(5-Fluoropyridin-3-yl)(4-(3-phenylpropyl)-7-azabicyclo[2.2.1]heptan-1-yl)methanol hydrochloride]",Emax at 10 µM,L6-myotubes [1],50 to 75%
same,Emax at 10 µM,L6-myotubes [2],25 to 50%
"O[C@@H](c1cncc(F)c1)C12CCC(CCCc3ccccc3)(CC1)N2 [Example 34, (S)-(5-Fluoropyridin-3-yl)(4-(3-phenylpropyl)-7-azabicyclo[2.2.1]heptan-1-yl)methanol hydrochloride]",Emax at 10 µM,L6-myotubes [1],50 to 75%
same,Emax at 10 µM,L6-myotubes [2],< 25%
"O[C@H](c1cccc(F)c1)C12CCC(CCCc3ccccc3)(CC1)N2 [Example 35, (R)-(3-Fluorophenyl)(4-(3-phenylpropyl)-7-azabicyclo[2.2.1]heptan-1-yl)methanol hydrochloride]",Emax at 10 µM,L6-myotubes [1],> 75%
same,Emax at 10 µM,L6-myotubes [2],25 to 50%
"O[C@@H](c1cccc(F)c1)C12CCC(CCCc3ccccc3)(CC1)N2 [Example 36, (S)-(3-Fluorophenyl)(4-(3-phenylpropyl)-7-azabicyclo[2.2.1]heptan-1-yl)methanol hydrochloride]",Emax at 10 µM,L6-myotubes [1],25 to 50%
same,Emax at 10 µM,L6-myotubes [2],< 25%
"O[C@H](c1cccc(F)c1)C12CCC(CCc3ccc(Cl)cc3)(CC1)N2 [Example 37, (R)-4-(4-Chlorophenethyl)-7-azabicyclo[2.2.1]heptan-1-yl)-(3-fluorophenyl)methanol acetate]",Emax at 10 µM,L6-myotubes [1],< 25%
same,Emax at 10 µM,L6-myotubes [2],< 25%
"O[C@@H](c1cccc(F)c1)C12CCC(CCc3ccc(Cl)cc3)(CC1)N2 [Example 38, (S)-(4-(4-Chlorophenethyl)-7-azabicyclo[2.2.1]heptan-1-yl)(3-fluoro-phenyl)methanol acetate]",Emax at 10 µM,L6-myotubes [1],< 25%
same,Emax at 10 µM,L6-myotubes [2],< 25%
"COc1ccc(CCC23CCC([C@H](O)c4cccc(F)c4)(CC2)N3)cc1 [Example 39, (R)-(3-Fluorophenyl)(4-(4-methoxyphenethyl)-7-azabicyclo[2.2.1]heptan-1-yl)methanol acetate]",Emax at 10 µM,L6-myotubes [1],50 to 75%
same,Emax at 10 µM,L6-myotubes [2],< 25%
"COc1ccc(CCC23CCC([C@@H](O)c4cccc(F)c4)(CC2)N3)cc1 [Example 40, (S)-(3-Fluorophenyl)(4-(4-methoxyphenethyl)-7-azabicyclo[2.2.1]heptan-1-yl)methanol acetate]",Emax at 10 µM,L6-myotubes [1],< 25%
same,Emax at 10 µM,L6-myotubes [2],< 25%
"COc1ccc(CCC23CCC([C@H](O)c4cncc(F)c4)(CC2)N3)cc1 [Example 41, (R)-(5-Fluoropyridin-3-yl)(4-(4-methoxyphenethyl)-7-azabicyclo-[2.2.1]heptan-1-yl)methanol dihydrochloride]",Emax at 10 µM,L6-myotubes [1],50 to 75%
same,Emax at 10 µM,L6-myotubes [2],25 to 50%
"COc1ccc(CCC23CCC([C@@H](O)c4cncc(F)c4)(CC2)N3)cc1 [Example 42, (S)-(5-Fluoropyridin-3-yl)(4-(4-methoxyphenethyl)-7-azabicyclo-[2.2.1]heptan-1-yl)methanol dihydrochloride]",Emax at 10 µM,L6-myotubes [1],< 25%
same,Emax at 10 µM,L6-myotubes [2],< 25%

# Source: US20250223296A1, “HYDROXYMETHYL AZABICYCLO[2.2.1]HEPTANES AND MEDICAL USES THEREOF” (ATROGI AB, priority 2022, published 2025)
